These are literature values, as cited in patent US7332526B2 (Allergan, Inc., priority 2003, dated 2008).

No end group written: not given here.

For data set [1] the following is noted: in vivo.
For data set [2], the system named is wounded corneal epithelial cells. Conditions: in vitro, rabbit cells.

For `CCNC(=O)CCC/C=C\C[C@@H]1[C@@H](/C=C/[C@@H](O)CCc2ccccc2)[C@H](O)C[C@@H]1O` [bimatoprost], in data set [1], the “hyperemia and other irritating side effects compared to certain prostaglandins” value was “significantly less hyperemia and other irritating side effects”.

Consider “TFF3: human trefoil factor family peptide with one trefoil domain, produced by goblet cells of small and large intestine (EEYVGLSANQCAVPAKDRVDCGYPHVTPKECNNRGCCFDSRIPGVPWCFKPLQEAECTF; ends and bridges not checked; cysteine pairing not given here; UniProt Q07654 22-80, looked up)”, for which the “migration of wounded corneal epithelial cells” value in data set [2] is “promote the migration”.

B1: TFF2: human trefoil factor family peptide containing two trefoil domains, produced by mucus-producing cells of stomach (protein, UniProt Q03403 24-129, looked up)
Trefoil factor 2: EKPSPCQCSRLSPHNRTNCGFPGITSDQCFDNGCCFDSSVTGVPWCFHPLPKQESDQCVMEVSDRRNCGYPGISPEECASRKCCFSNFIFEVPWCFFPKSVEDCHY
Turning to B1, the “migration of wounded corneal epithelial cells” value in data set [2] was “promote the migration”.
